In patent US20120321685A1, “COMPOSITIONS CONTAINING OILS HAVING A SPECIFIC GRAVITY HIGHER THAN THE SPECIFIC GRAVITY OF WATER” (SOL-GEL TECHNOLOGIES LTD., priority 2001, published 2012):

Key:
[1] = Solubility of BMDBM and other solid sunscreen actives in different solvents; assay type: physicochemical; conditions: in Dipropylene glycol Dibenzoate (Finetex Finsolv PG-22), 25° C.
Procedure: The solubility of commonly used sunscreen active ingredients was tested by heating a solution of below-mentioned solvents or their mixture to 50° C. under stirring. Access amount of the sunscreen active was added. After thorough mixing to dissolve the solid, the solution was allowed to cool to 25° C. over night in the water bath under constant oscillation and the access active precipitated. The solution was filtered using 0.2 μm PTFE filter, and the concentration of BMDBM was determined by HPLC equipped with UV diode array detector against standard solution of BMDBM. For the other sunscreen actives, the concentration of the active was determined spectroscopically against standard solution of the active. Table 1 lists the solubility values obtained for BMDBM and other sunscreen actives in different commercially available solvents.

[2] = cited from earlier work
[3] = Solubility of benzoyl peroxide in Finsolve PG-22; assay type: physicochemical
Procedure: The solubility of benzoyl peroxide in dipropylene glycol dibenzoate (Finsolv PG 22) was measured in a method similar to Example 1. Benzoyl peroxide concentration was determined by titration according to USP. The solubility of benzoyl peroxide in Finsolve PG-22 is 6 wt. %.

SMILES	Solvent specific gravity, acc. to D25/25 [2]	other results
COc1ccc(C(=O)c2ccccc2)c(O)c1 [Benzophenone-3]	–	Solubility, concentration [1]: 26.6 wt %
CCC(=O)OCc1ccccc1 [Benzyl propionate]	1.028-1.032	–
CC(COC(=O)c1ccccc1)OCC(C)OC(=O)c1ccccc1 (stereo not drawn) [Dermol DPG-2B, Dipropylene glycol Dibenzoate]	1.117	–
CCOC(=O)c1ccccc1 [Ethyl benzoate]	1.043-1.046	–
CCOC(=O)c1ccccc1O [Ethyl salicylate]	1.126-1.130	–
CC(COC(=O)c1ccccc1)OCC(C)OC(=O)c1ccccc1 (stereo not drawn) [Finsolv PG-22, Dipropylene glycol Dibenzoate]	1.12	–
Cc1ccc(/C=C2/C(=O)C3(C)CCC2C3(C)C)cc1 (stereo not drawn) [Methyl benzyledene camphor]	–	Solubility, concentration [1]: 30.16 wt %
O=C(OOC(=O)c1ccccc1)c1ccccc1 [benzoyl peroxide]	–	Solvent quality of dipropylene glycol dibenzoate for BPO ([3]; in dipropylene glycol dibenzoate): good solvent; Solubility of benzoyl peroxide in Finsolve PG-22 ([3]; in dipropylene glycol dibenzoate (Finsolv PG 22), method similar to Example 1, titration according to USP): 6 wt. %
